Experimental data from paper PMC5218480 (PLoS ONE, 2017).

Tested on: MV-4-11 cells
Experiment: Gene expression microarray analysis (Affymetrix PrimeView) and GSEA
Assay type: cell-based, human
Set-up: RFU PODN (11730768_x_at) / Fold change /veh PODN (11730768_x_at) / RFU LINC00158 (11744669_a_at) / Fold change /veh LINC00158 (11744669_a_at) / RFU DUSP10 (11751237_a_at) / Fold change /veh DUSP10 (11751237_a_at) / RFU ID3 (11757404_x_at) / Fold change /veh ID3 (11757404_x_at) / RFU PLEKHG5 (11737974_s_at) / Fold change /veh PLEKHG5 (11737974_s_at) / RFU LRRC4B (11730491_at) / Fold change /veh LRRC4B (11730491_at) / RFU GIMAP4 (11747438_a_at) / Fold change /veh GIMAP4 (11747438_a_at) / RFU KRT8 (11758183_x_at) / Fold change /veh KRT8 (11758183_x_at) / RFU CNN1 (11734310_a_at) / Fold change /veh CNN1 (11734310_a_at) / RFU VPS37D (11726825_at) / Fold change /veh VPS37D (11726825_at) / RFU C10orf10 (11716522_x_at) / Fold change /veh C10orf10 (11716522_x_at) / RFU KIR2DL2 /// KIR2DL4 /// KIR2DL5A /// KIR2DL5B /// KIR2DS1 /// KIR2DS2 /// KIR2DS3 /// KIR2DS4 /// KIR3DL3 /// KIR3DL3 /// KIR3DS1 (11738374_at) / Fold change /veh KIR2DL2 /// KIR2DL4 /// KIR2DL5A /// KIR2DL5B /// KIR2DS1 /// KIR2DS2 /// KIR2DS3 /// KIR2DS4 /// KIR3DL3 /// KIR3DL3 /// KIR3DS1 (11738374_at) / RFU C1QL1 (11718748_at) / Fold change /veh C1QL1 (11718748_at) / RFU TMPRSS4 (11747572_a_at) / Fold change /veh TMPRSS4 (11747572_a_at) / RFU HAMP (11756126_x_at) / Fold change /veh HAMP (11756126_x_at) / RFU RNFT2 (11725882_a_at) / Fold change /veh RNFT2 (11725882_a_at) / RFU NR4A2 (11747474_a_at) / Fold change /veh NR4A2 (11747474_a_at) / RFU ABCC12 (11746883_a_at) / Fold change /veh ABCC12 (11746883_a_at) / RFU TMEM136 (11760407_x_at) / Fold change /veh TMEM136 (11760407_x_at) / RFU CLDN22 /// WWC2 (11732394_at) / Fold change /veh CLDN22 /// WWC2 (11732394_at) / RFU HLA-DPB1 (11760878_x_at) / Fold change /veh HLA-DPB1 (11760878_x_at) / RFU SPINT1 (11716480_a_at) / Fold change /veh SPINT1 (11716480_a_at) / RFU GAP43 (11754022_s_at) / Fold change /veh GAP43 (11754022_s_at) / RFU A4GNT (11735810_at) / Fold change /veh A4GNT (11735810_at) / RFU PRB3 (11715151_x_at) / Fold change /veh PRB3 (11715151_x_at) / RFU TUBB4B (11761932_at) / Fold change /veh TUBB4B (11761932_at) / RFU CAPN14 (11732068_a_at) / Fold change /veh CAPN14 (11732068_a_at) / RFU TMCC2 (11721928_a_at) / Fold change /veh TMCC2 (11721928_a_at) / RFU IRGQ (11745062_a_at) / Fold change /veh IRGQ (11745062_a_at) / RFU FAM174B (11720279_a_at) / Fold change /veh FAM174B (11720279_a_at) / RFU TMPRSS4 (11748680_a_at) / Fold change /veh TMPRSS4 (11748680_a_at) / RFU FAM212B (11763350_a_at) / Fold change /veh FAM212B (11763350_a_at) / RFU PLEKHG5 (11743358_a_at) / Fold change /veh PLEKHG5 (11743358_a_at) / RFU ZSCAN30 (11745921_a_at) / Fold change /veh ZSCAN30 (11745921_a_at) / RFU CMKLR1 (11741424_a_at) / Fold change /veh CMKLR1 (11741424_a_at) / RFU LOC101060620 /// MAPK8IP1 (11723275_at) / Fold change /veh LOC101060620 /// MAPK8IP1 (11723275_at) / RFU SPTSSB (11747773_x_at) / Fold change /veh SPTSSB (11747773_x_at) / RFU PRSS12 (11739890_at) / Fold change /veh PRSS12 (11739890_at) / RFU BIN1 (11741810_x_at) / Fold change /veh BIN1 (11741810_x_at) / RFU WNT11 (11732464_a_at) / Fold change /veh WNT11 (11732464_a_at) / RFU C10orf10 (11716521_a_at) / Fold change /veh C10orf10 (11716521_a_at) / RFU C5orf56 (11738089_at) / Fold change /veh C5orf56 (11738089_at) / RFU CYB561 (11721691_x_at) / Fold change /veh CYB561 (11721691_x_at) / RFU ANKRD19P (11752326_a_at) / Fold change /veh ANKRD19P (11752326_a_at) / RFU OR2T12 /// OR2T33 /// OR2T8 (11738714_s_at) / Fold change /veh OR2T12 /// OR2T33 /// OR2T8 (11738714_s_at) / RFU VCAN (11748164_a_at) / Fold change /veh VCAN (11748164_a_at) / RFU JSRP1 (11732532_at) / Fold change /veh JSRP1 (11732532_at) / RFU KRTAP10-11 (11738290_x_at) / Fold change /veh KRTAP10-11 (11738290_x_at) / RFU MYO3A (11730013_a_at) / Fold change /veh MYO3A (11730013_a_at) / RFU EBF3 (11725865_a_at) / Fold change /veh EBF3 (11725865_a_at) / RFU CAMK2N1 (11719241_x_at) / Fold change /veh CAMK2N1 (11719241_x_at) / RFU C5orf56 (11738088_a_at) / Fold change /veh C5orf56 (11738088_a_at) / RFU OLFML3 (11715873_a_at) / Fold change /veh OLFML3 (11715873_a_at) / RFU LOC100653217 /// NTM (11731650_a_at) / Fold change /veh LOC100653217 /// NTM (11731650_a_at) / RFU MAPK11 (11762145_a_at) / Fold change /veh MAPK11 (11762145_a_at) / RFU FIZ1 (11724087_x_at) / Fold change /veh FIZ1 (11724087_x_at) / RFU OASL (11726364_x_at) / Fold change /veh OASL (11726364_x_at) / RFU SOX15 (11748057_x_at) / Fold change /veh SOX15 (11748057_x_at) / RFU CD79A (11719716_a_at) / Fold change /veh CD79A (11719716_a_at) / RFU HIST1H1D (11736915_at) / Fold change /veh HIST1H1D (11736915_at) / RFU CASKIN2 (11723855_a_at) / Fold change /veh CASKIN2 (11723855_a_at) / RFU LOC730098 (11760151_x_at) / Fold change /veh LOC730098 (11760151_x_at) / RFU OR4N2 (11742367_at) / Fold change /veh OR4N2 (11742367_at) / RFU PRRT2 (11749266_a_at) / Fold change /veh PRRT2 (11749266_a_at) / RFU SNX32 (11753110_a_at) / Fold change /veh SNX32 (11753110_a_at) / RFU CDHR5 (11726645_a_at) / Fold change /veh CDHR5 (11726645_a_at) / RFU RCAN1 (11760418_a_at) / Fold change /veh RCAN1 (11760418_a_at) / RFU FAM167A (11723789_a_at) / Fold change /veh FAM167A (11723789_a_at) / RFU FAM26E (11764081_at) / Fold change /veh FAM26E (11764081_at) / RFU ISYNA1 (11749810_s_at) / Fold change /veh ISYNA1 (11749810_s_at) / RFU ACY1 (11761880_at) / Fold change /veh ACY1 (11761880_at) / RFU 11764098_at / Fold change /veh 11764098_at / RFU SAMD14 (11745864_x_at) / Fold change /veh SAMD14 (11745864_x_at) / RFU NPB (11741838_a_at) / Fold change /veh NPB (11741838_a_at) / RFU TMPRSS6 (11731388_a_at) / Fold change /veh TMPRSS6 (11731388_a_at) / RFU KRTAP10-2 (11738614_at) / Fold change /veh KRTAP10-2 (11738614_at) / RFU ARHGAP8 /// PRR5-ARHGAP8 (11727945_x_at) / Fold change /veh ARHGAP8 /// PRR5-ARHGAP8 (11727945_x_at) / RFU KRTAP5-7 /// NADSYN1 (11734609_at) / Fold change /veh KRTAP5-7 /// NADSYN1 (11734609_at) / RFU RASL12 (11751679_a_at) / Fold change /veh RASL12 (11751679_a_at) / RFU CDKN2B (11736163_a_at) / Fold change /veh CDKN2B (11736163_a_at) / RFU PRF1 (11729649_at) / Fold change /veh PRF1 (11729649_at) / RFU, ZNF638 /// ZNF638-IT1 / Fold change vs veh, ZNF638 /// ZNF638-IT1 / RFU, PANK3 / Fold change vs veh, PANK3 / RFU, SH3YL1 / Fold change vs veh, SH3YL1 / RFU, ZEB2 / Fold change vs veh, ZEB2 / RFU, NRIP1 / Fold change vs veh, NRIP1 / RFU, PTTG1IP / Fold change vs veh, PTTG1IP / RFU, CAPN2 / Fold change vs veh, CAPN2 / RFU, MED14 / Fold change vs veh, MED14 / RFU, SNORA58 / Fold change vs veh, SNORA58 / RFU, C1orf63 / Fold change vs veh, C1orf63 / RFU, LRRFIP1 / Fold change vs veh, LRRFIP1 / RFU, NDUFAF7 / Fold change vs veh, NDUFAF7 / RFU, SLC12A2 / Fold change vs veh, SLC12A2 / RFU, IBTK / Fold change vs veh, IBTK / RFU, ESF1 / Fold change vs veh, ESF1 / Fold change vs veh, TMEM50B / RFU, TAOK1 / Fold change vs veh, TAOK1 / RFU, ACBD3 / Fold change vs veh, ACBD3 / RFU, TMA16 / Fold change vs veh, TMA16 / RFU, RWDD3 / Fold change vs veh, RWDD3 / RFU, BCAT1 / Fold change vs veh, BCAT1 / RFU, EDEM3 / Fold change vs veh, EDEM3 / RFU, TMEM33 / Fold change vs veh, TMEM33 / RFU, WDR75 / Fold change vs veh, WDR75 / RFU, AHCTF1 / Fold change vs veh, AHCTF1 / RFU, TFRC / Fold change vs veh, TFRC / RFU, ZDHHC17 / Fold change vs veh, ZDHHC17 / RFU, NOM1 / Fold change vs veh, NOM1 / RFU, ARL8B / Fold change vs veh, ARL8B / RFU, ZBTB11 / Fold change vs veh, ZBTB11 / RFU, TAMM41 / Fold change vs veh, TAMM41 / RFU, KIAA1704 /// LOC100996395 / Fold change vs veh, KIAA1704 /// LOC100996395 / RFU, ING1 / Fold change vs veh, ING1 / RFU, TRMT61B / Fold change vs veh, TRMT61B / RFU, FUBP3 / Fold change vs veh, FUBP3 / RFU, TP53 / Fold change vs veh, TP53 / RFU, TNKS2 / Fold change vs veh, TNKS2 / RFU, ZFP14 / Fold change vs veh, ZFP14 / RFU, ACTR2 / Fold change vs veh, ACTR2 / RFU, PPP3R1 / Fold change vs veh, PPP3R1 / RFU, PIK3R1 / Fold change vs veh, PIK3R1 / RFU, HNRNPA1 / Fold change vs veh, HNRNPA1 / RFU, RNF170 / Fold change vs veh, RNF170 / RFU, ZNF28 / Fold change vs veh, ZNF28 / RFU, RNGTT / Fold change vs veh, RNGTT / RFU, OGT / Fold change vs veh, OGT / RFU, BRD1 / Fold change vs veh, BRD1 / RFU, MARS / Fold change vs veh, MARS / RFU, ZNF655 / Fold change vs veh, ZNF655 / RFU, FAHD1 / Fold change vs veh, FAHD1 / RFU, BDP1 / Fold change vs veh, BDP1 / RFU, LRRCC1 / Fold change vs veh, LRRCC1 / RFU, ARID1A / Fold change vs veh, ARID1A / RFU, ZNF146 / Fold change vs veh, ZNF146 / RFU, ZNF330 / Fold change vs veh, ZNF330 / RFU, GPN3 / Fold change vs veh, GPN3 / RFU, C9orf123 / Fold change vs veh, C9orf123 / RFU, N4BP2L2 / Fold change vs veh, N4BP2L2 / RFU, ARFIP1 / Fold change vs veh, ARFIP1 / RFU, FAM179B / Fold change vs veh, FAM179B / RFU, BCL10 / Fold change vs veh, BCL10 / RFU, UHRF1BP1L / Fold change vs veh, UHRF1BP1L / RFU, BET1 / Fold change vs veh, BET1 / RFU, CNOT2 / Fold change vs veh, CNOT2 / RFU, ZNF268 / Fold change vs veh, ZNF268 / Fold change vs veh, ZNF507 / RFU, DGCR2 / Fold change vs veh, DGCR2 / RFU, WDSUB1 / Fold change vs veh, WDSUB1 / Fold change vs veh, HSP90B1 /// MIR3652 / RFU, ADSS / Fold change vs veh, ADSS / RFU, GK / Fold change vs veh, GK / RFU, ZNF148 / Fold change vs veh, ZNF148 / RFU, TAF9 / Fold change vs veh, TAF9 / RFU, SLC1A5 / Fold change vs veh, SLC1A5 / RFU, SLMO2 / Fold change vs veh, SLMO2 / RFU, ABCC4 / Fold change vs veh, ABCC4 / RFU, LOC101060439 /// RAP1B / Fold change vs veh, LOC101060439 /// RAP1B / RFU, RFX7 / Fold change vs veh, RFX7 / RFU, GTPBP10 / Fold change vs veh, GTPBP10 / RFU, CNEP1R1 / Fold change vs veh, CNEP1R1 / RFU, BIVM-ERCC5 /// ERCC5 / Fold change vs veh, BIVM-ERCC5 /// ERCC5 / RFU, ILF3 / Fold change vs veh, ILF3 / RFU 11762660_at / Fold change /veh 11762660_at / RFU VCAN (11757783_s_at) / Fold change /veh VCAN (11757783_s_at) / RFU DDX43 (11728927_at) / Fold change /veh DDX43 (11728927_at) / RFU KRT8 (11758188_x_at) / Fold change /veh KRT8 (11758188_x_at) / RFU NKD1 (11759106_at) / Fold change /veh NKD1 (11759106_at) / RFU SRD5A1 (11742802_a_at) / Fold change /veh SRD5A1 (11742802_a_at) / RFU TPSAB1 /// TPSB2 (11721975_s_at) / Fold change /veh TPSAB1 /// TPSB2 (11721975_s_at) / RFU GSTM3 (11746129_a_at) / Fold change /veh GSTM3 (11746129_a_at) / RFU IL23R (11737362_x_at) / Fold change /veh IL23R (11737362_x_at) / RFU TMEM51 (11727254_a_at) / Fold change /veh TMEM51 (11727254_a_at) / RFU PIWIL2 (11732686_x_at) / Fold change /veh PIWIL2 (11732686_x_at) / RFU ORM1 (11744905_x_at) / Fold change /veh ORM1 (11744905_x_at) / RFU CCDC152 (11743942_at) / Fold change /veh CCDC152 (11743942_at) / RFU ECM1 (11717891_a_at) / Fold change /veh ECM1 (11717891_a_at) / RFU IL23R (11748794_a_at) / Fold change /veh IL23R (11748794_a_at) / RFU TNFAIP8L3 (11732012_x_at) / Fold change /veh TNFAIP8L3 (11732012_x_at) / RFU MBOAT4 (11741988_at) / Fold change /veh MBOAT4 (11741988_at) / RFU 11764193_at / Fold change /veh 11764193_at / RFU TMEM53 (11763286_at) / Fold change /veh TMEM53 (11763286_at) / RFU MAGEB2 (11727129_at) / Fold change /veh MAGEB2 (11727129_at) / RFU TMEM200A (11744735_a_at) / Fold change /veh TMEM200A (11744735_a_at) / RFU CCDC152 (11751479_a_at) / Fold change /veh CCDC152 (11751479_a_at) / RFU FAM211A (11726209_a_at) / Fold change /veh FAM211A (11726209_a_at) / RFU RGS16 (11746705_a_at) / Fold change /veh RGS16 (11746705_a_at) / RFU VCAN (11755009_s_at) / Fold change /veh VCAN (11755009_s_at) / RFU RHOB (11743442_s_at) / Fold change /veh RHOB (11743442_s_at) / RFU RGS16 (11720943_a_at) / Fold change /veh RGS16 (11720943_a_at) / RFU RGS16 (11720944_at) / Fold change /veh RGS16 (11720944_at) / RFU, VPS4B / Fold change vs veh, VPS4B / RFU, CREB1 / Fold change vs veh, CREB1 / RFU, DNAJC13 / Fold change vs veh, DNAJC13 / RFU, GNAQ / Fold change vs veh, GNAQ / RFU, CDK5R1 / Fold change vs veh, CDK5R1 / RFU, ZRANB3 / Fold change vs veh, ZRANB3 / RFU, CUL4A / Fold change vs veh, CUL4A / RFU, CCNY / Fold change vs veh, CCNY / RFU, UFL1 / Fold change vs veh, UFL1 / RFU, COG3 / Fold change vs veh, COG3 / RFU, DIAPH2 / Fold change vs veh, DIAPH2 / RFU, SKA2 / Fold change vs veh, SKA2 / RFU, AFF3 / Fold change vs veh, AFF3 / RFU, LMF1 / Fold change vs veh, LMF1 / RFU, IPO11 / Fold change vs veh, IPO11 / RFU, DFFB / Fold change vs veh, DFFB / RFU, FOXP1 / Fold change vs veh, FOXP1 / RFU, CARD8 / Fold change vs veh, CARD8 / RFU, STRN3 / Fold change vs veh, STRN3 / RFU, ADK / Fold change vs veh, ADK / RFU, RASSF2 / Fold change vs veh, RASSF2 / RFU, WIPF1 / Fold change vs veh, WIPF1 / RFU, LARP1B / Fold change vs veh, LARP1B / RFU, RASA1 / Fold change vs veh, RASA1 / RFU, RB1 / Fold change vs veh, RB1 / RFU, PPFIA1 / Fold change vs veh, PPFIA1 / RFU, MAT2A / Fold change vs veh, MAT2A / RFU, CCT5 / Fold change vs veh, CCT5 / RFU, WDR92 / Fold change vs veh, WDR92 / RFU, CUX1 / Fold change vs veh, CUX1 / RFU, TTC7A / Fold change vs veh, TTC7A / RFU, TMEM135 / Fold change vs veh, TMEM135 / RFU, DEPTOR / Fold change vs veh, DEPTOR / RFU, CPM / Fold change vs veh, CPM / RFU, DNAJB6 / Fold change vs veh, DNAJB6 / RFU, CACNA2D3 / Fold change vs veh, CACNA2D3 / RFU, DTX4 / Fold change vs veh, DTX4 / RFU, TFCP2 / Fold change vs veh, TFCP2 / RFU, GMCL1 /// GMCL1P1 / Fold change vs veh, GMCL1 /// GMCL1P1 / RFU, AEBP2 / Fold change vs veh, AEBP2 / RFU, SNHG1 /// SNORD22 /// SNORD25 /// SNORD26 /// SNORD27 /// SNORD28 /// SNORD29 /// SNORD31 / Fold change vs veh, SNHG1 /// SNORD22 /// SNORD25 /// SNORD26 /// SNORD27 /// SNORD28 /// SNORD29 /// SNORD31 / Fold change (Aza/veh), C12orf56 (ProbeSet 11735607_a_at) / Fold change (ACY-1035/veh), C12orf56 (ProbeSet 11735607_a_at) / Fold change (Aza/veh), FGFR1OP (ProbeSet 11751329_s_at) / Fold change (ACY-1035/veh), FGFR1OP (ProbeSet 11751329_s_at) / Fold change (Aza/veh), VPS36 (ProbeSet 11739960_a_at) / Fold change (ACY-1035/veh), VPS36 (ProbeSet 11739960_a_at) / RFU SYPL1 (11715823_x_at) / Fold change /veh SYPL1 (11715823_x_at) / RFU IGFBP7 (11715501_s_at) / Fold change /veh IGFBP7 (11715501_s_at) / RFU REEP3 (11722064_at) / Fold change /veh REEP3 (11722064_at) / RFU IGLL1 (11728026_x_at) / Fold change /veh IGLL1 (11728026_x_at): dose or concentration left out as unconfirmed
Conditions: MV-4-11 cells, 48 hours

## Nc1ccc(-c2cccs2)cc1NC(=O)c1ccc2c(c1)cc(C1CC1)n2CCN1CCOCC1 [ACY-1035]
  RFU RNFT2 (11725882_a_at): 13.97 RFU
